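Five compound concentrations were applied to cells in 96-well plates for 48 hours; endpoints were derived by simple linear interpolation of the resulting dose-response curve. GI50 is the concentration that inhibits growth by half.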 Calls of active or inactive are those of the source. Rule as the data show it: active = GI50 up to about 1.1 µM and inactive = higher.
Assays:
Test in all cases: inhibition of tumour cell growth, NCI panel, 48 h
[1] = test system: UO-31
[2] = test system: MDA-N
[3] = test system: SK-OV-3
[4] = test system: MCF7
[5] = test system: HL-60
[6] = test system: UACC-62
[7] = test system: HCT-15
[8] = test system: HOP-92
[9] = test system: LOX IMVI
[10] = test system: NCI-H522
[11] = test system: DU-145
[12] = test system: OVCAR-5
[13] = test system: SF-295
[14] = test system: HCT-116
[15] = test system: 786-0
[16] = test system: OVCAR-3
[17] = test system: Malme-3M
[18] = test system: MOLT-4
[19] = test system: SNB-75

SMILES | GI50 [1] | GI50 [2] | GI50 [3] | GI50 [4] | GI50 [5] | GI50 [6] | GI50 [7] [µM] | GI50 [8] | GI50 [9] | GI50 [10] | GI50 [11] | GI50 [12] | GI50 [13] | GI50 [14] | GI50 [15] | GI50 [16] | GI50 [17] | GI50 [18] | GI50 [19]
CC1C(=O)CC[C@@]2(C)C(=O)CCCC12O (some centres not stated) | > 100 µM (inactive) | > 100 µM (inactive) | > 100 µM (inactive) | > 100 µM (inactive) | > 100 µM (inactive) | > 100 µM (inactive) | > 100 | > 100 µM (inactive) | > 100 µM (inactive) | > 100 µM (inactive) | > 100 µM (inactive) | > 100 µM (inactive) | > 100 µM (inactive) | > 100 µM (inactive) | > 100 µM (inactive) | > 100 µM (inactive) | > 100 µM (inactive) | > 100 µM (inactive) | –
Fc1ccc2c(c1)cc1ccc3cccc4ccc2c1c34 | > 100 µM (inactive) | – | > 100 µM (inactive) | – | > 100 µM (inactive) | > 100 µM (inactive) | – | > 100 µM (inactive) | > 100 µM (inactive) | > 100 µM (inactive) | – | > 100 µM (inactive) | > 100 µM (inactive) | > 100 µM (inactive) | > 100 µM (inactive) | > 100 µM (inactive) | > 100 µM (inactive) | > 100 µM (inactive) | > 100 µM (inactive)
CCOC(=O)C(=O)Nc1ccc(Cl)cc1C | > 100 µM (inactive) | – | > 100 µM (inactive) | – | > 100 µM (inactive) | > 100 µM (inactive) | > 100 | > 100 µM (inactive) | > 100 µM (inactive) | > 100 µM (inactive) | – | > 100 µM (inactive) | > 100 µM (inactive) | > 100 µM (inactive) | > 100 µM (inactive) | > 100 µM (inactive) | > 100 µM (inactive) | > 100 µM (inactive) | > 100 µM (inactive)
CC(=O)OCC1OC(n2c3c(c(-c4cccc5ccccc45)c(C#N)c2=S)CCCC3)C(OC(C)=O)C(OC(C)=O)C1OC(C)=O (configuration not stated) | 31.3 µM (inactive) | > 100 µM (inactive) | > 100 µM (inactive) | > 100 µM (inactive) | > 100 µM (inactive) | > 100 µM (inactive) | > 100 | 0.112 µM (active) | > 100 µM (inactive) | > 100 µM (inactive) | > 100 µM (inactive) | > 100 µM (inactive) | > 100 µM (inactive) | > 100 µM (inactive) | > 100 µM (inactive) | > 100 µM (inactive) | > 100 µM (inactive) | > 100 µM (inactive) | –

Source: ChEMBL document CHEMBL1201862, “PubChem BioAssay data set” (2004)
